{"source": "patent US20020102259A1", "about": "“Methods and compositions for stimulating CD 45 and thereby suppressing microglial activation associated with Alzheimer's disease” (priority 2000, published 2002)", "molecules": {"B1": {"name": "CD45 recombinant protein: Human CD45 recombinant protein obtained from CALBIOCHEM, added at 20 U/mL (protein, UniProt P08575 26-1306, looked up)", "Receptor-type …": "QSPTPSPTGLTTAKMPSVPLSSDPLPTHTTAFSPASTFERENDFSETTTSLSPDNTSTQVSPDSLDNASAFNTTGVSSVQTPHLPTHADSQTPSAGTDTQTFSGSAANAKLNPTPGSNAISDVPGERSTASTFPTDPVSPLTTTLSLAHHSSAALPARTSNTTITANTSDAYLNASETTTLSPSGSAVISTTTIATTPSKPTCDEKYANITVDYLYNKETKLFTAKLNVNENVECGNNTCTNNEVHNLTECKNASVSISHNSCTAPDKTLILDVPPGVEKFQLHDCTQVEKADTTICLKWKNIETFTCDTQNITYRFQCGNMIFDNKEIKLENLEPEHEYKCDSEILYNNHKFTNASKIIKTDFGSPGEPQIIFCRSEAAHQGVITWNPPQRSFHNFTLCYIKETEKDCLNLDKNLIKYDLQNLKPYTKYVLSLHAYIIAKVQRNGSAAMCHFTTKSAPPSQVWNMTVSMTSDNSMHVKCRPPRDRNGPHERYHLEVEAGNTLVRNESHKNCDFRVKDLQYSTDYTFKAYFHNGDYPGEPFILHHSTSYNSKALIAFLAFLIIVTSIALLVVLYKIYDLHKKRSCNLDEQQELVERDDEKQLMNVEPIHADILLETYKRKIADEGRLFLAEFQSIPRVFSKFPIKEARKPFNQNKNRYVDILPYDYNRVELSEINGDAGSNYINASYIDGFKEPRKYIAAQGPRDETVDDFWRMIWEQKATVIVMVTRCEEGNRNKCAEYWPSMEEGTRAFGDVVVKINQHKRCPDYIIQKLNIVNKKEKATGREVTHIQFTSWPDHGVPEDPHLLLKLRRRVNAFSNFFSGPIVVHCSAGVGRTGTYIGIDAMLEGLEAENKVDVYGYVVKLRRQRCLMVQVEAQYILIHQALVEYNQFGETEVNLSELHPYLHNMKKRDPPSEPSPLEAEFQRLPSYRSWRTQHIGNQEENKSKNRNSNVIPYDYNRVPLKHELEMSKESEHDSDESSDDDSDSEEPSKYINASFIMSYWKPEVMIAAQGPLKETIGDFWQMIFQRKVKVIVMLTELKHGDQEICAQYWGEGKQTYGDIEVDLKDTDKSSTYTLRVFELRHSKRKDSRTVYQYQYTNWSVEQLPAEPKELISMIQVVKQKLPQKNSSEGNKHHKSTPLLIHCRDGSQQTGIFCALLNLLESAETEEVVDIFQVVKALRKARPGMVSTFEQYQFLYDVIASTYPAQNGQVKKNNHQEDKIEFDNEVDKVKQDANCVNPLGAPEKLPEAKEQAEGSEPTSGTEGPEHSVNGPASPALNQGS"}}, "key": {"[1]": {"system": "primary cultured microglial cells", "experiment": "Nitric oxide (NO) release assay on primary cultured microglial cells", "type": "cell-based, mouse", "settings": "for NO release induced by phen and Aβ peptides: microglia activated with phen (5 mM) and Aβ peptides (1000 nM), 12 h, effect of added agent; for NO release (microglial activation): phosphatase inhibitor co-treated with Aβ peptides (1000 nM), wild-type microglia, 12 hours", "protocol": "(§1) Breeding pairs of BALB/c and CD45 deficient (C57BL/601aHsd-Ptprc) mice were purchased from Jackson Laboratory (Bar Harbor, Maine) and housed in the animal facility at the University of South Florida Health Science Center. Tg APPSW mice are the 2576 line backcrossed to C57B6/SJL as previously described (Hsiao et al., 1995; Hsiao et al., 1996). Murine primary culture microglia were isolated from mouse cerebral cortices and were grown in RPMI medium supplemented with 5% fetal calf serum, 2 mM glutamine, 100 U/mL penicillin, […] streptomycin and 0.05 mM 2-mercaptoethanol according to previously described methods (Chao et al., 1992). Briefly, cerebral cortices from newborn mice (1-2 days old) were isolated under sterile conditions and were kept at 4 degrees Centigrade prior to mechanical dissociation. Cells were plated in […] flasks and complete medium was added. Primary cultures were kept for 14 days so that only glial cells remained, and microglia were isolated by shaking flasks at 200 rpm in a LabLine TM Incubator-Shaker. More than 98% of these glial cells stained positive for Mac-1 (CD11b /CD18; Boehringer Mannheim Biochemicals, Indianapolis, Ind.). Mouse primary culture neuronal cells were prepared as previously described (Chao et al., 1992). Briefly, cerebral cortices were isolated from BALB/c mouse embryos, between 15 to 17 days in utero, and cortices were mechanically dissociated in trypsin ([…]) following incubation for 15 min at 37° C. Cells were collected following centrifugation at 1200 rpm and resuspended in DMEM (GIBCO, Gaithersburg, Md.) supplemented with 10% fetal calf serum, 10% horse serum, uridine (33.6 mg/mL, Sigma Chemical-Co., St. Louis, Mo.) and fluorodeoxyuridine (1 3.6 mg/mL, Sigma) and plated in 24 well tissue-culture plates at 2.5×1 O′ cells/well after collagen-coating the plates. After 10 days in vitro, cells were passed in preparation for subsequent experiments. […] To verify CD45 deficiency status, CD45 expression in microglia isolated from CD45 -deficient mice was determined by FACS (fluorescence activated cell sorter) analysis as previously described (Tan et al., 1999a), and CD45 was undetectable in these cells (data not shown).\n(§2) Primary cultured microglial cells were plated in 24-well tissue-culture plates (Costar, Cambridge, Mass.) at 5×10^4 cells/well and stimulated for 12 h with phen ([…]), Aβ peptides (1000 nM) or phen/Aβ peptides in the presence or absence of anti-CD45 antibody (1:200) or PD98059 ([…]) pre-treatment for 1 hour, or appropriate controls. […] The Bio-Rad protein assay (Bio-Rad Laboratories, Hercules, Calif.) was performed to measure total cellular protein from each of the cell groups under consideration just prior to quantification of cytokine release by ELISA or NO secretion by NO assay."}, "[2]": {"system": "primary cultured microglial cells", "experiment": "TNF-α ELISA on primary cultured microglial cells", "type": "cell-based, mouse", "settings": "for TNF-α release induced by phen and Aβ peptides: microglia activated with phen (5 mM) and Aβ peptides (1000 nM), 12 h, effect of added agent; for TNF-α production (microglial activation): phosphatase inhibitor co-treated with Aβ peptides (1000 nM), wild-type microglia, 12 hours", "protocol": "as §1, §2"}, "p44/22 MAPK [3]": {"system": "p44/22 MAPK", "experiment": "Western immunoblotting of phosphorylated/total p44/22 MAPK in microglial cell lysates", "type": "cell-based, mouse", "settings": "microglia co-treated with phen and Aβ peptides; effect of added agent", "protocol": "Murine primary culture microglia were plated in 6 well tissue-culture plates at a density of 8×10^5 cells/well. These cells were incubated for 30 min with or without phen ([…]) and Aβ peptides (1000 nM) in the presence or absence of anti-CD45 or control antibodies (1:200 dilution for each) or PD98059 ([…]) pre-treatment for 1 hour, or appropriate controls. Immediately following culturing, microglia were washed in ice-cold phosphate buffered saline (PBS) 3×, scraped into ice-cold PBS, and lysed in an ice-cold lysis buffer containing 20 mM Tris (pH 7.5), 150 mM NaCl, 1 mM EDTA, 1 mM EGTA, 1% Triton X-100, 2.5 mM sodium pyrophosphate, 1 mM b-glycerolphosphate, 1 mM Na3VO4, 1 μg/mL leupeptin, and 1 mM PMSF. After incubation for 30 min. on ice, samples were centrifuged at high speed for 15 minutes, and supernatants were collected. Total protein content was estimated using the Bio-Rad protein assay. An aliquot corresponding to 50 μg of total protein of each sample was separated by SDS-PAGE and transferred electrophoretically to Hy-bond PVDF membranes. Non-specific antibody binding was blocked with 5% non-fat dry milk for 1 h at room temperature in TBS (20 mM Tris, 500 mM NaCl, pH 7.5). […] Densiometric analysis was preformed for all blots using the Fluor-S Multimager™ with Quantity One™ software (Bio-Rad, Calif.)."}, "p44/22 MAPK [4]": {"system": "p44/22 MAPK", "experiment": "Immune complex kinase assay (phospho-Elk 1) in microglial cell lysates", "type": "cell-based, mouse", "settings": "microglia co-treated with phen and Aβ peptides; effect of added agent", "protocol": "Primary culture microglial cells were seeded in 6-well tissue-culture plates at 8×10^5 per well. Thirty minutes following co-treatment with phen and Aβ peptides in the presence or absence of anti-CD45 antibody or appropriate controls, microglial cells were lysed in ice-cold lysis buffer (as described above). Total cellular protein was quantified with the BioRad protein assay, and an aliquot of […] of protein for each treatment condition was separated by SDS-PAGE. p44/22 MAPK activity was determined using the p44/22 MAP-Kinase Assay Kit (New England BioLabs, Beverly, Mass.) in strict accordance with the manufacturer's instruction. The phosphorylated form of the Elk 1 p44/22 MAPK fusion protein was visualized by Western immunoblotting (as described above) using a specific antibody for phosphorylated Elk 1 supplied with the kit."}, "Tg APPSW mice": {"system": "Tg APPSW mice", "settings": "Tg APPSW mice given ibuprofen; cited from earlier work"}}, "note": "“Also recorded” adds a separate entry of the source."}
{"molecule": "COc1cccc(-c2cc(=O)c3ccccc3o2)c1N", "note": "[PD98059]", "values": [{"measurement": "NO release induced by phen and Aβ peptides", "setting": "[1]", "value": "markedly decreased; also recorded: statistically interactive blockade"}, {"measurement": "TNF-α release induced by phen and Aβ peptides", "setting": "[2]", "value": "markedly decreased; also recorded: statistically interactive blockade"}, {"measurement": "phen and Aβ-mediated phosphorylation of p44/22 MAPK", "setting": "p44/22 MAPK [3]", "value": "significant reduction"}, {"measurement": "phen and Aβ-mediated activity of p44/22 MAPK", "setting": "p44/22 MAPK [4]", "value": "significant reduction"}]}
{"molecule": "CC(C)Cc1ccc(C(C)C(=O)O)cc1", "note": "(centres unmarked) [ibuprofen]", "values": [{"measurement": "Aβ deposits, astrocytosis, and dystrophic neurites", "setting": "Tg APPSW mice", "value": "reduction"}]}
{"molecule": "C=C1[C@@H](O)[C@@H]2O[C@]3(CC[C@H](/C=C/[C@@H](C)[C@@H]4CC(C)=C[C@@]5(O[C@H](C[C@@](C)(O)C(=O)O)CC[C@H]5O)O4)O3)CC[C@H]2O[C@@H]1[C@@H](O)C[C@H](C)[C@H]1O[C@@]2(CCCCO2)CC[C@H]1C", "note": "[okadaic acid]", "values": [{"measurement": "NO release (microglial activation)", "setting": "[1]", "value": "not detectable"}, {"measurement": "TNF-α production (microglial activation)", "setting": "[2]", "value": "not detectable"}]}
{"molecule": "[Na+].[Na+].[Na+].[O]=[V]([O-])([O-])[O-]", "note": "[sodium orthovanadate]", "values": [{"measurement": "NO release (microglial activation)", "setting": "[1]", "value": "results similar to phen and Aβ peptide co-treatment"}, {"measurement": "TNF-α production (microglial activation)", "setting": "[2]", "value": "results similar to phen and Aβ peptide co-treatment"}]}
{"molecule": "B1", "values": [{"measurement": "NO release induced by phen and Aβ peptides", "setting": "[1]", "value": "markedly decreased"}, {"measurement": "TNF-α release induced by phen and Aβ peptides", "setting": "[2]", "value": "markedly decreased"}]}
